This experiment concerns the target DNA topoisomerase 2-alpha (Homo sapiens, UniProt P11388). As to the kind of experiment: Inhibition Assay. To be noted: pH 7.5; 4 °C. The text has this: In vitro inhibition of TOP2 alpha activity by BNS derivatives.

The values that follow come from BindingDB's records for doi:10.1016/j.chembiol.2011.03.012 (Riken Advanced Science Institute, 2011).

pIC50: −log10 of the molar value.

Chain of DNA topoisomerase 2-alpha (P11388 whole entry): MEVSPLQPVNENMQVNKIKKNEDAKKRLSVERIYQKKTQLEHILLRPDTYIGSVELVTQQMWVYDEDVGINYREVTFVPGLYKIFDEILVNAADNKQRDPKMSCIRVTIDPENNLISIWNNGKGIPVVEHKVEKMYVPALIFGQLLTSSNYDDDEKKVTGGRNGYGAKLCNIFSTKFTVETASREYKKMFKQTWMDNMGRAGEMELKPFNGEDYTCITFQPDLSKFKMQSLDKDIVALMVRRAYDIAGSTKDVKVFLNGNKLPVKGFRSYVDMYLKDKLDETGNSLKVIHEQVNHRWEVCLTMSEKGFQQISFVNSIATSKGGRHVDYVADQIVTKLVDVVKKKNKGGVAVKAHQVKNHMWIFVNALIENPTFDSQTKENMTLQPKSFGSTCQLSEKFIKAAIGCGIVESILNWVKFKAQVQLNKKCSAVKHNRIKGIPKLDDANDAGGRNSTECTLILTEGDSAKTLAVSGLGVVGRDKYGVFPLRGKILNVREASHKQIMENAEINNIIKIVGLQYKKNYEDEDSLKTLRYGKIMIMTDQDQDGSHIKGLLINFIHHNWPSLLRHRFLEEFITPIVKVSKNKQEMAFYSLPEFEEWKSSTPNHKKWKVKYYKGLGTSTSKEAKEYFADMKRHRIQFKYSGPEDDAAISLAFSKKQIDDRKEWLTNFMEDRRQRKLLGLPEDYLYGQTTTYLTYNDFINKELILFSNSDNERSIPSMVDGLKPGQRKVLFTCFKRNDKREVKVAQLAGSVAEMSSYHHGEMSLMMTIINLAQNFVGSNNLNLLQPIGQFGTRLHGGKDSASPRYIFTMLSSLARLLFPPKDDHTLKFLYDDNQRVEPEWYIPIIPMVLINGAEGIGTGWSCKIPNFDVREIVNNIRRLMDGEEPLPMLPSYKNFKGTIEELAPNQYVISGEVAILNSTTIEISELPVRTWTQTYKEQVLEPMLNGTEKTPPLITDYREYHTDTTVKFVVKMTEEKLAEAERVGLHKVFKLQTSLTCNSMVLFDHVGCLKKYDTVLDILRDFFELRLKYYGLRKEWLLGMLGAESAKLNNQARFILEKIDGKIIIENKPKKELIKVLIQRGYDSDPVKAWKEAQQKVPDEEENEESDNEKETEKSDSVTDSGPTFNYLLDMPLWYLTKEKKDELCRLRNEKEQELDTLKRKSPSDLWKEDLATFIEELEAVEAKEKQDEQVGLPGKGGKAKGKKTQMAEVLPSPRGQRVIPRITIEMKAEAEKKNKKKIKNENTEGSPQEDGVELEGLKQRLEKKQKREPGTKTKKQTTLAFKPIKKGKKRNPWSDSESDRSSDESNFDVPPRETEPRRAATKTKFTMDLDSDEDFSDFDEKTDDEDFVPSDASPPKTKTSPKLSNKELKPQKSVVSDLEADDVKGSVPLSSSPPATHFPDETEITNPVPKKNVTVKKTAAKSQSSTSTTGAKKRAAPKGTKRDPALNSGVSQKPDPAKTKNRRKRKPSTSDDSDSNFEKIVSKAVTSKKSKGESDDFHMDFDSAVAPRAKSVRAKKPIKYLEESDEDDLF

As usually defined, the pIC50 is the negative decadic logarithm of the IC50, by convention in mol/L. Low readings indicate a large IC50, high ones a small IC50. As for `CCCc1cc(=O)oc2c(C(=O)N3CCCc4ccccc43)c(OC)cc(OC)c12` [BNS-22], the negative-log IC50 (pIC50) is 5.55.
Compound `CCCc1cc(=O)oc2c(C(=O)N3CCc4ccccc4C3)c(OC)cc(OC)c12` [BNS-52] had a pIC50 of less than 4.00.
With `CCCc1cc(=O)oc2c(C(=O)N3CCC(Cc4ccccc4)CC3)c(OC)cc(OC)c12` [BNS-53], the pIC50 is less than 4.00.
As to `CCCc1cc(=O)oc2c(C(=O)N3CCCCC3)c(OC)cc(OC)c12` [BNS-54], the pIC50 is less than 4.00.
On to `COC(=O)Cc1cc(=O)oc2c(C(=O)N3CCCc4ccccc43)c(OC)cc(OC)c12` [BNS-65], for which the negative logarithm of the IC50 (pIC50) was 5.09.
